Measurements: patent publication US20250282768A1 (Janssen Pharmaceutica NV, priority 2022, published 2025)

Each molecule was assayed on p-IKKa levels in L363 (NIK translocated multiple myeloma) cells (assay: Assay 2: Effect of compounds on p-IKKa levels in L363 (NIK translocated multiple myeloma) cells). Conditions: Homo sapiens, L-363, 6 h, read-out: Assay 2 IC50 (nM), p-IKKa (Ser 176/180) in BAFF stimulated L363 cells with MG132, 6 h; average if tested more than once.
Format: cell-based
Experimental: Assay 2: Effect of Compounds on p-IKKa Levels in L363 (NIK Translocated Multiple Myeloma) Cells
All compounds tested were dissolved and serially diluted in DMSO, 1:3 dilution for 11 points in an Echo compatible plate. 100% DMSO was added to columns 12 and 24 of the plate to serve as high and low signal controls. This compound plate was used to spot 20 nL of compound or DMSO into a Greiner 384 well TC plate (781080). The final DMSO concentration was 0.3% (v/v) in cell assays. Human L363 cells (ATCC) were cultured in RPM11640 medium supplemented with GlutaMax, non-essential amino acids, sodium pyruvate and 10% fetal bovine serum. Cells were routinely maintained at densities of 0.2×10^6 cells per ml—2×10^6 cells per mL at 37° C. in a humidified 5% CO2 atmosphere incubator. Cells were passaged twice a week splitting back to obtain the low density. The day before the assay, cells were washed twice in HBSS (Hank's Balanced Salt Solution), resuspended in Dulbecco's Modified Eagle Medium (DMEM)+0.5% IgG and protease free BSA (Jackson Immuno Research Laboratories), +/−250 ng/ml recombinant human B-cell activating factor (BAFF/BLyS/TNFSF13B) and incubated overnight at 37° C. in a humidified 5% CO2 atmosphere (bulk stimulation with or without BAFF). The next day, the cell concentration was adjusted to 1×10^7 cells/ml in DMEM+/−250 ng/ml BAFF +/−10 μM MG132 and plated at 10 μl/well into compound or DMSO spotted 384 well TC plates. Seeded cells were incubated at 37° C. in a humidified 5% CO2 atmosphere for 6 h. After 6 h, the plates were removed from the incubator and cell lysis was achieved by the addition of 2.5 μl 5×lysis buffer containing protease and phosphatase inhibitors, followed by shaking on a plate shaker at room temperature for 15 min. At the end of this incubation, lysed cells were sequentially treated and incubated with acceptor and donor bead mixes according to the manufacturer's protocol for a 1 plate/2-incubation suspension cell assay (AlphaLISA SureFire Ultra p-IKKa (Ser 176/180) Assay Kit (Perkin Elmer). Plates were read using an EnVision Multilabel Plate Reader (Perkin Elmer). Within an experiment, a concentration response curve for each compound was run in duplicate. The signal obtained in the test wells was normalized using high signal (BAFF stimulated cells, DMSO, MG132) and low signal (unstimulated cells, DMSO) controls. To determine the IC50, a sigmoidal curve was fitted to the plot of % inhibition versus Log10 compound concentration.
In the case of `C[C@@H]1Cn2nc(Nc3nccc(-c4cccc(-c5cc([C@]6(O)CCN(C)C6=O)on5)n4)n3)cc2CO1` (single isomer, unassigned) [Example 114, (R)-3-Hydroxy-1-methyl-3-(3-(6-(2-(((*R)-6-methyl-6,7-dihydro-4H-pyrazolo[5,1-c][1,4]oxazin-2-yl)amino)pyrimidin-4-yl)pyridin-2-yl)isoxazol-5-yl)pyrrolidin-2-one], the IC50 is reported as < 50 nM.
`C[C@H]1Cn2nc(Nc3nccc(-c4cccc(-c5cc([C@]6(O)CCN(C)C6=O)on5)n4)n3)cc2CO1` (single isomer, unassigned) [Example 115, (R)-3-Hydroxy-1-methyl-3-(3-(6-(2-(((*S)-6-methyl-6,7-dihydro-4H-pyrazolo[5,1-c][1,4]oxazin-2-yl)amino)pyrimidin-4-yl)pyridin-2-yl)isoxazol-5-yl)pyrrolidin-2-one] showed an IC50 of 50 to 500 nM.
Work on `CC1OCCn2ncc(Nc3nccc(-c4cccc(-c5cc([C@@]6(O)C(=O)N(C)CC6(F)F)on5)n4)n3)c21` (single isomer, unassigned) [Example 116, (R)-4,4-Difluoro-3-hydroxy-1-methyl-3-(3-(6-(2-(((*R)-4-methyl-6,7-dihydro-4H-pyrazolo[5,1-c][1,4]oxazin-3-yl)amino)pyrimidin-4-yl)pyridin-2-yl)isoxazol-5-yl)pyrrolidin-2-one] yielded an IC50 of 50 to 500 nM.
In the case of `C[C@@H](Nc1nccc(-c2cccc(-n3cc([C@]4(O)CCN(C)C4=O)nn3)n2)n1)c1cnn(C)c1` (single isomer, unassigned) [Example 118], the IC50 is reported as > 500 nM.
With `C[C@H](Nc1nccc(-c2cccc(-n3cc([C@]4(O)CCN(C)C4=O)nn3)n2)n1)c1cnn(C)c1` (single isomer, unassigned) [Example 119] the IC50 was < 50 nM.
In the case of `CN1CC[C@@](O)(c2cc(-c3cccc(-c4ccnc(Nc5cnn(C)c5C(F)(F)F)n4)n3)no2)C1=O` (single isomer, unassigned) [Example 132, (*R)-3-Hydroxy-1-methyl-3-(3-(6-(2-((1-methyl-5-(trifluoromethyl)-1H-pyrazol-4-yl)amino)pyrimidin-4-yl)pyridin-2-yl)isoxazol-5-yl)pyrrolidin-2-one], the IC50 is reported as < 50 nM.
In the case of `CN1CC[C@@](O)(c2cc(-c3cccc(-c4ccnc(Nc5cnn([C@H]6CCN(C7COC7)C6)c5)n4)n3)no2)C1=O` (single isomer, unassigned) [Example 140], the IC50 is reported as < 50 nM.
`CN1CC[C@@](O)(c2cc(-c3cccc(-c4ccnc(Nc5cnn([C@@H]6CCN(C7COC7)C6)c5)n4)n3)no2)C1=O` (single isomer, unassigned) [Example 141] was tested, and the IC50 was < 50 nM.
Molecule `C[C@@H](Nc1nccc(-c2cccc(-n3cc([C@]4(O)CCN(C)C4=O)nn3)n2)n1)c1ncccn1` (single isomer, unassigned) [Example 142] has an IC50 of 50 to 500 nM.
`C[C@H](Nc1nccc(-c2cccc(-n3cc([C@]4(O)CCN(C)C4=O)nn3)n2)n1)c1ncccn1` (single isomer, unassigned) [Example 143] was tested, and the IC50 was 50 to 500 nM.
With `C[C@@H](Nc1nccc(-c2cccc(-c3cc([C@]4(O)CCN(C)C4=O)on3)n2)n1)c1cn[nH]c1` (single isomer, unassigned) [Example 148] the IC50 was < 50 nM.
`C[C@H](Nc1nccc(-c2cccc(-c3cc([C@]4(O)CCN(C)C4=O)on3)n2)n1)c1cn[nH]c1` (single isomer, unassigned) [Example 149] gave an IC50 of 50 to 500 nM.
For `Cc1noc([C@@H](C)Nc2nccc(-c3cccc(-c4cc([C@]5(O)CCN(C)C5=O)on4)n3)n2)n1` (single isomer, unassigned) [Example 150], the IC50 was 50 to 500 nM.
For `Cc1noc([C@H](C)Nc2nccc(-c3cccc(-c4cc([C@]5(O)CCN(C)C5=O)on4)n3)n2)n1` (single isomer, unassigned) [Example 151], the IC50 was 50 to 500 nM.
For `C[C@@H](Nc1nccc(-c2cccc(-c3cc([C@]4(O)CCN(C)C4=O)on3)n2)n1)c1ccncc1` (single isomer, unassigned) [Example 154], the IC50 was 50 to 500 nM.
In the case of `C[C@H](Nc1nccc(-c2cccc(-c3cc([C@]4(O)CCN(C)C4=O)on3)n2)n1)c1ccncc1` (single isomer, unassigned) [Example 155], the IC50 is reported as 50 to 500 nM.
Work on `Cc1cccnc1[C@@H](C)Nc1nccc(-c2cccc(-c3cc([C@]4(O)CCN(C)C4=O)on3)n2)n1` (single isomer, unassigned) [Example 156] yielded an IC50 of 50 to 500 nM.
In the case of `Cc1cccnc1[C@H](C)Nc1nccc(-c2cccc(-c3cc([C@]4(O)CCN(C)C4=O)on3)n2)n1` (single isomer, unassigned) [Example 157], the IC50 is reported as > 500 nM.
`C[C@@H](Nc1nccc(-c2cccc(-c3cc([C@]4(O)CCN(C)C4=O)on3)n2)n1)c1cnc2ccccn12` (single isomer, unassigned) [Example 160] was tested, and the IC50 was > 500 nM.
`C[C@H](Nc1nccc(-c2cccc(-c3cc([C@]4(O)CCN(C)C4=O)on3)n2)n1)c1cnc2ccccn12` (single isomer, unassigned) [Example 161] was tested, and the IC50 was 50 to 500 nM.
With `CC(C)[C@@H](Nc1nccc(-c2cccc(-c3cc([C@]4(O)CCN(C)C4=O)on3)n2)n1)c1cnn(C)c1` (single isomer, unassigned) [Example 162] the IC50 was > 500 nM.
With `CC(C)[C@H](Nc1nccc(-c2cccc(-c3cc([C@]4(O)CCN(C)C4=O)on3)n2)n1)c1cnn(C)c1` (single isomer, unassigned) [Example 163] the IC50 was 50 to 500 nM.
In the case of `C[C@@H](Nc1nccc(-c2cccc(-c3cc([C@]4(O)CCN(C)C4=O)on3)n2)n1)c1ccn2ccnc2c1` (single isomer, unassigned) [Example 164], the IC50 is reported as > 500 nM.
Molecule `C[C@H](Nc1nccc(-c2cccc(-c3cc([C@]4(O)CCN(C)C4=O)on3)n2)n1)c1ccn2ccnc2c1` (single isomer, unassigned) [Example 165] has an IC50 of 50 to 500 nM.
`CN1CC[C@@](O)(c2cc(-c3cccc(-c4ccnc(Nc5ccn(C)n5)n4)n3)n(C)n2)C1=O` (single isomer, unassigned) [Example 166, (*R)-3-Hydroxy-1-methyl-3-(1-methyl-5-(6-(2-((1-methyl-1H-pyrazol-3-yl)amino)pyrimidin-4-yl)pyridin-2-yl)-1H-pyrazol-3-yl)pyrrolidin-2-one] was tested, and the IC50 was > 500 nM.
With `COc1nn(CC(F)F)cc1Nc1nccc(-c2cccc(-c3cnc([C@]4(O)CCN(C)C4=O)s3)n2)n1` (single isomer, unassigned) [Example 188, (*R)-3-(5-(6-(2-((1-(2,2-Difluoroethyl)-3-methoxy-1H-pyrazol-4-yl)amino)pyrimidin-4-yl)pyridin-2-yl)thiazol-2-yl)-3-hydroxy-1-methylpyrrolidin-2-one] the IC50 was < 50 nM.
With `COc1nn(CC(F)F)cc1Nc1nccc(-c2cccc(-c3cc([C@@]4(O)CCN(C)C4=O)n[nH]3)n2)n1` (single isomer, unassigned) [Example 189, (*R)-3-(5-(6-(2-((1-(2,2-Difluoroethyl)-3-methoxy-1H-pyrazol-4-yl)amino)pyrimidin-4-yl)pyridin-2-yl)-1H-pyrazol-3-yl)-3-hydroxy-1-methylpyrrolidin-2-one] the IC50 was < 50 nM.
With `CC1OCCn2ncc(Nc3nccc(-c4cccc(-c5cc([C@]6(O)CCN(C)C6=O)on5)n4)n3)c21` (single isomer, unassigned) [Example 195, (R)-3-Hydroxy-1-methyl-3-(3-(6-(2-(((*R)-4-methyl-6,7-dihydro-4H-pyrazolo[5,1-c][1,4]oxazin-3-yl)amino)pyrimidin-4-yl)pyridin-2-yl)isoxazol-5-yl)pyrrolidin-2-one] the IC50 was < 50 nM.
With `CN1CC[C@@](O)(c2cc(-c3cccc(-c4ccnc(Nc5cnn(C)c5C(F)F)n4)n3)no2)C1=O` (single isomer, unassigned) [Example 198, (*R)-3-(3-(6-(2-((5-(Difluoromethyl)-1-methyl-1H-pyrazol-4-yl)amino)pyrimidin-4-yl)pyridin-2-yl)isoxazol-5-yl)-3-hydroxy-1-methylpyrrolidin-2-one] the IC50 was < 50 nM.
With `COCCn1ccc(Nc2nccc(-c3cccc(-c4cc([C@]5(O)CCN(C)C5=O)on4)n3)n2)n1` (single isomer, unassigned) [Example 199, (*R)-3-Hydroxy-3-(3-(6-(2-((1-(2-methoxyethyl)-1H-pyrazol-3-yl)amino)pyrimidin-4-yl)pyridin-2-yl)isoxazol-5-yl)-1-methylpyrrolidin-2-one] the IC50 was < 50 nM.
With `CN1CC[C@H](n2cc(Nc3nccc(-c4cccc(-c5cc([C@]6(O)CCN(C)C6=O)on5)n4)n3)cn2)[C@@H](F)C1` (single isomer, unassigned) [Example 201] the IC50 was < 50 nM.
